Assay results published in patent US9255090B2, “Heterocyclyl derivatives and their use as prostaglandin D2 receptor modulators” (Actelion Pharmaceuticals Ltd., priority 2012, dated 2016).

Molecular target: hCRTH2 receptor (Homo sapiens (Human), UniProt Q9Y5Y4)
Assay: hCRTH2 receptor membranes radioligand (3H-PGD2) displacement assay
Format: binding
Conditions: 3H-PGD2 radioligand displacement, HEK293-hCRTH2 membranes
Method in brief: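 Compound was first mixed with buffer, then 3H-PGD2 was added at 2.5 nM, and the reaction was started with hCRTH2 membranes from HEK293 cells at 20 μg/well. After 90 min at room temperature, mixtures were filtered and washed with ice-cold buffer, and retained radioactivity was counted.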

Sequence of hCRTH2 receptor (Q9Y5Y4 whole entry): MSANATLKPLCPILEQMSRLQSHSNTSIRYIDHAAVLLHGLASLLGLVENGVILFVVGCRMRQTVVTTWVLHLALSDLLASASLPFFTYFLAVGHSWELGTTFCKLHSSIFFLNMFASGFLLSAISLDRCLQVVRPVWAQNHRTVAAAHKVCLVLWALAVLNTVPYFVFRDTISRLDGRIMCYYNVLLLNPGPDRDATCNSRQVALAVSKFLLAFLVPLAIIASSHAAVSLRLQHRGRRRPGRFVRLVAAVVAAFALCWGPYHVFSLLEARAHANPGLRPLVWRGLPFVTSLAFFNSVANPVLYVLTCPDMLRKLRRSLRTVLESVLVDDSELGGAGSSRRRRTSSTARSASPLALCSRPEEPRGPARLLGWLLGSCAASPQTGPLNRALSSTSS

Row | Structure (SMILES) | IC50
1 | COc1ccc(CC(=O)O)cc1-c1ccc(F)c2c1CCN(C(=O)CCc1cn(C)c3ccccc13)C2 [Example 105, (3-{8-Fluoro-2-[3-(1-methyl-1H-indol-3-yl)-propionyl]-1,2,3,4-tetrahydro-isoquinolin-5-yl}-4-methoxy-phenyl)-acetic acid] | 17.7 nM
2 | COc1ccc(CC(=O)O)cc1-c1ccc(F)c2c1CN(C(=O)C[C@H](C)c1ccccc1)CC2 [Example 107, {3-[5-Fluoro-2-((S)-3-phenyl-butyryl)-1,2,3,4-tetrahydro-isoquinolin-8-yl]-4-methoxy-phenyl}-acetic acid] | 18.3 nM
3 | COc1ccc(CC(=O)O)cc1-c1ccc(F)c2c1CN(C(=O)C1Cc3ccccc3C1)CC2 [Example 110, {3-[5-Fluoro-2-(indane-2-carbonyl)-1,2,3,4-tetrahydro-isoquinolin-8-yl]-4-methoxy-phenyl}-acetic acid] | 172 nM
4 | COc1ccc(CC(=O)O)cc1-c1ccc(F)c2c1CN(C(=O)CC1Cc3ccccc3C1)CC2 [Example 111, {3-[5-Fluoro-2-(2-indan-2-yl-acetyl)-1,2,3,4-tetrahydro-isoquinolin-8-yl]-4-methoxy-phenyl}-acetic acid] | 8.11 nM
5 | COc1ccc(CC(=O)O)cc1-c1ccc(F)c2c1CN(C(=O)CCCc1ccccc1)CC2 [Example 117, {3-[5-Fluoro-2-(4-phenyl-butyryl)-1,2,3,4-tetrahydro-isoquinolin-8-yl]-4-methoxy-phenyl}-acetic acid] | 5.41 nM
6 | COc1ccc(CC(=O)O)cc1-c1ccc(F)c2c1CN(C(=O)CCC(=O)c1ccccc1)CC2 [Example 118, {3-[5-Fluoro-2-(4-oxo-4-phenyl-butyryl)-1,2,3,4-tetrahydro-isoquinolin-8-yl]-4-methoxy-phenyl}-acetic acid] | 38.6 nM
7 | COc1ccc(CC(=O)O)cc1-c1ccc(F)c2c1CN(C(=O)Cc1cn(C)c3ccccc13)CC2 [Example 119, (3-{5-Fluoro-2-[2-(1-methyl-1H-indol-3-yl)-acetyl]-1,2,3,4-tetrahydro-isoquinolin-8-yl}-4-methoxy-phenyl)-acetic acid] | 69.5 nM
8 | COc1ccc(CC(=O)O)cc1-c1ccc(F)c2c1CN(C(=O)Cc1noc3ccccc13)CC2 [Example 121, {3-[2-(2-Benzo[d]isoxazol-3-yl-acetyl)-5-fluoro-1,2,3,4-tetrahydro-isoquinolin-8-yl]-4-methoxy-phenyl}-acetic acid] | 47.2 nM
9 | COc1ccc(CC(=O)O)cc1-c1ccc(F)c2c1CN(C(=O)Cc1n[nH]c3ccccc13)CC2 [Example 124, {3-[5-Fluoro-2-(2-1H-indazol-3-yl-acetyl)-1,2,3,4-tetrahydro-isoquinolin-8-yl]-4-methoxy-phenyl}-acetic acid] | 10.5 nM
10 | COc1ccc(CC(=O)O)cc1-c1ccc(F)c2c1CN(C(=O)CCn1ncc3cc(F)ccc31)CC2 [Example 126, (3-{5-Fluoro-2-[3-(5-fluoro-indazol-1-yl)-propionyl]-1,2,3,4-tetrahydro-isoquinolin-8-yl}-4-methoxy-phenyl)-acetic acid] | 9.54 nM
11 | COc1ccc(CC(=O)O)cc1-c1ccc(F)c2c1CN(C(=O)NCc1ccccc1F)CC2 [Example 130, {3-[5-Fluoro-2-(2-fluoro-benzylcarbamoyl)-1,2,3,4-tetrahydro-isoquinolin-8-yl]-4-methoxy-phenyl}-acetic acid] | 17.7 nM
12 | COc1ccc(CC(=O)O)cc1-c1ccc(F)c2c1CN(C(=O)NCc1cccc(F)c1)CC2 [Example 131, {3-[5-Fluoro-2-(3-fluoro-benzylcarbamoyl)-1,2,3,4-tetrahydro-isoquinolin-8-yl]-4-methoxy-phenyl}-acetic acid] | 60.1 nM
13 | COc1ccc(CC(=O)O)cc1-c1ccc(F)c2c1CN(C(=O)NCCc1ccccc1)CC2 [Example 133, [3-(5-Fluoro-2-phenethylcarbamoyl-1,2,3,4-tetrahydro-isoquinolin-8-yl)-4-methoxy-phenyl]-acetic acid] | 13 nM
14 | COc1ccc(CC(=O)O)cc1-c1ccc(F)c2c1CN(C(=O)NCc1ccccc1Cl)CC2 [Example 134, {3-[2-(2-Chloro-benzylcarbamoyl)-5-fluoro-1,2,3,4-tetrahydro-isoquinolin-8-yl]-4-methoxy-phenyl}-acetic acid] | 21.5 nM
15 | COc1ccccc1CNC(=O)N1CCc2c(F)ccc(-c3cc(CC(=O)O)ccc3OC)c2C1 [Example 135, {3-[5-Fluoro-2-(2-methoxy-benzylcarbamoyl)-1,2,3,4-tetrahydro-isoquinolin-8-yl]-4-methoxy-phenyl}-acetic acid] | 19.6 nM
16 | COc1ccc(CC(=O)O)cc1-c1ccc(F)c2c1CN(C(=O)NCc1ccccc1)CC2 [Example 136, [3-(2-Benzylcarbamoyl-5-fluoro-1,2,3,4-tetrahydro-isoquinolin-8-yl)-4-methoxy-phenyl]-acetic acid] | 30.6 nM
17 | O=C(O)COc1cc(Cl)cc(-c2ccc(F)c3c2CN(C(=O)OCc2ccccc2)CC3)c1 [Example 144, 8-(3-Carboxymethoxy-5-chloro-phenyl)-5-fluoro-3,4-dihydro-1H-isoquinoline-2-carboxylic acid benzyl ester] | 86.2 nM
18 | O=C(O)COc1ccc(Cl)cc1-c1ccc(F)c2c1CN(C(=O)OCc1ccccc1)CC2 [Example 145, 8-(2-Carboxymethoxy-5-chloro-phenyl)-5-fluoro-3,4-dihydro-1H-isoquinoline-2-carboxylic acid benzyl ester] | 430 nM
19 | COc1ccc(CC(=O)O)cc1-c1ccc(OC)c2c1CN(C(=O)OCc1ccccc1)CC2 [Example 156, 8-(5-Carboxymethyl-2-methoxy-phenyl)-5-methoxy-3,4-dihydro-1H-isoquinoline-2-carboxylic acid benzyl ester] | 251 nM

Further lines, results first:

Row | IC50 | Structure (SMILES)
20 | 176 nM | COc1ccc(CC(=O)O)cc1-c1ccc(F)c2c1CN(C(=O)CC1CCCCC1)CC2 [Example 127, {3-[2-(2-Cyclohexyl-acetyl)-5-fluoro-1,2,3,4-tetrahydro-isoquinolin-8-yl]-4-methoxy-phenyl}-acetic acid]
21 | 538 nM | COc1ccc(CC(=O)O)cc1-c1ccc(F)c2c1CN(C(=O)CC1(O)CCCCC1)CC2 [Example 128, (3-{5-Fluoro-2-[2-(1-hydroxy-cyclohexyl)-acetyl]-1,2,3,4-tetrahydro-isoquinolin-8-yl}-4-methoxy-phenyl)-acetic acid]
22 | 913 nM | COc1ccc(CC(=O)O)cc1-c1ccc(F)c2c1CN(C(=O)CC(C)(C)C)CC2 [Example 129, {3-[2-(3,3-Dimethyl-butyryl)-5-fluoro-1,2,3,4-tetrahydro-isoquinolin-8-yl]-4-methoxy-phenyl}-acetic acid]
23 | 764 nM | CCCNC(=O)N1CCc2c(F)ccc(-c3cc(CC(=O)O)ccc3OC)c2C1 [Example 137, [3-(5-Fluoro-2-propylcarbamoyl-1,2,3,4-tetrahydro-isoquinolin-8-yl)-4-methoxy-phenyl]-acetic acid]
24 | 187 nM | CCOC(=O)N1CCc2c(F)ccc(-c3cc(CC(=O)O)ccc3OC)c2C1 [Example 141, 8-(5-Carboxymethyl-2-methoxy-phenyl)-5-fluoro-3,4-dihydro-1H-isoquinoline-2-carboxylic acid ethyl ester]
25 | 148 nM | COc1ccc(CC(=O)O)cc1-c1ccc(F)c2c1CN(C(=O)OCC(C)C)CC2 [Example 142, 8-(5-Carboxymethyl-2-methoxy-phenyl)-5-fluoro-3,4-dihydro-1H-isoquinoline-2-carboxylic acid isobutyl ester]
26 | 348 nM | COc1ccc(CC(=O)O)cc1-c1ccc(F)c2c1CN(C(=O)OC(C)C)CC2 [Example 143, 8-(5-Carboxymethyl-2-methoxy-phenyl)-5-fluoro-3,4-dihydro-1H-isoquinoline-2-carboxylic acid isopropyl ester]
27 | 51.6 nM | COc1ccc(CC(=O)O)cc1-c1ccc(F)c2c1CN(C(=O)OCc1ccnn1C)CC2 [Example 148, 8-(5-Carboxymethyl-2-methoxy-phenyl)-5-fluoro-3,4-dihydro-1H-isoquinoline-2-carboxylic acid 2-methyl-2H-pyrazol-3-ylmethyl ester]
28 | 6.87 nM | COc1ccc(CC(=O)O)cc1-c1ccc(F)c2c1CN(C(=O)OCc1cc(C)nn1C)CC2 [Example 149, 8-(5-Carboxymethyl-2-methoxy-phenyl)-5-fluoro-3,4-dihydro-1H-isoquinoline-2-carboxylic acid 2,5-dimethyl-2H-pyrazol-3-ylmethyl ester]
29 | 7.12 nM | COc1ccc(CC(=O)O)cc1-c1ccc(F)c2c1CN(C(=O)OCc1csc(C)n1)CC2 [Example 150, 8-(5-Carboxymethyl-2-methoxy-phenyl)-5-fluoro-3,4-dihydro-1H-isoquinoline-2-carboxylic acid 2-methyl-thiazol-4-ylmethyl ester]
30 | 5.73 nM | COc1ccc(CC(=O)O)cc1-c1ccc(F)c2c1CN(C(=O)OCc1cnc(C)s1)CC2 [Example 151, 8-(5-Carboxymethyl-2-methoxy-phenyl)-5-fluoro-3,4-dihydro-1H-isoquinoline-2-carboxylic acid 2-methyl-thiazol-5-ylmethyl ester]
31 | 34.1 nM | COc1ccc(CC(=O)O)cc1-c1ccc(F)c2c1CN(C(=O)OCc1cncnc1)CC2 [Example 152, 8-(5-Carboxymethyl-2-methoxy-phenyl)-5-fluoro-3,4-dihydro-1H-isoquinoline-2-carboxylic acid pyrimidin-5-ylmethyl ester]
32 | 40.7 nM | COc1ccc(CC(=O)O)cc1-c1ccc(F)c2c1CN(C(=O)OCCc1scnc1C)CC2 [Example 153, 8-(5-Carboxymethyl-2-methoxy-phenyl)-5-fluoro-3,4-dihydro-1H-isoquinoline-2-carboxylic acid 2-(4-methyl-thiazol-5-yl)-ethyl ester]
33 | 46.8 nM | COc1ccc(CC(=O)O)cc1-c1ccc(C)c2c1CN(C(=O)OCc1ccccc1)CC2 [Example 155, 8-(5-Carboxymethyl-2-methoxy-phenyl)-5-methyl-3,4-dihydro-1H-isoquinoline-2-carboxylic acid benzyl ester]
